# Results reported in patent US20230081529A1 (CBSBIOSCIENCE CO., LTD, priority 2020, published 2023).
# Where two headings read alike, the source gives them in different places.
# Key:
# [1] = test system: hepatocellular carcinoma (HCC) patients; conditions: systemic first-line therapy without predictive biomarkers; cited from earlier work
# [2] = test system: hepatocellular carcinoma (HCC) patients; test: Sorafenib treatment of 73 HCC patients: tumor response (mRECIST) and Kaplan-Meier survival; assay type: in vivo, human
# Source text: This study included 73 histological confirmed HCC patients. […] All tissues were obtained by needle biopsy. The patients were from Ajou Medical Center (AMC). The protocol of this study was approved by the Institutional Review Boards of Ajou Medical Center (AMC).
# From a DCR perspective, patients with complete response (CR), partial response (PR) and stable disease (SD) were considered as responders whereas those with progressive disease (PD) were judged as non-responders.
# Relationship between treatment response and clinicopathologic variables was evaluated using Chi square tests or Fishers exact tests. Gene expression data were tested for normality with the Shapiro-Wilk test. […] Receiver operating characteristic (ROC) curve analysis was used to determine accuracy of threshold values classifying tumor responders and non-responders using gene signature. Kaplan-Meier survival (KM) curves were calculated using death as end point in overall survival (OS) and using death and progression disease as end point in progression free survival (PFS). The difference in KM curves was examined by log-rank test and the difference in hazard ratio was examined by Cox regression analysis. […] Significance was set at P<0.05 (two-tailed). All statistics were performed in R version 3.3.3 (R Development Core Team, https:/www.r-project.org/).
# [3] = entire patients treated with sorafenib
# [4] = predicted good responders (8-gene signature)
# [5] = predicted poor responders (8-gene signature)
smiles,measurement,setting,value
CNC(=O)c1cc(Oc2ccc(NC(=O)Nc3ccc(Cl)c(C(F)(F)F)c3)cc2)ccn1 [sorafenib],Median overall survival,[1],10.7 months
same,objective response rates,[1],2%
same,Median overall survival,[2]; [3],11.3 months
same,Median progression-free survival,[2]; [3],2.9 months
same,Median time to progression,[2]; [3],2.9 months
same,disease control rate,"[2]; entire patients, before selection with the 8-gene signature",28.77%
same,"Tumor response: Progressive disease, number of patients",[2]; non-responders (n = 52),52
same,"Tumor response: Progressive disease, share of group",[2]; non-responders (n = 52),100.0%
same,number of non-responders (PD),[2]; of 73 patients treated with sorafenib,52
same,disease control rate,[2]; patients selected with the 8-gene signature,85.71%
same,Median progression-free survival,[2]; [4],5.8 months
same,Median time to progression,[2]; [4],5.8 months
same,Median overall survival,[2]; [5],6.7 months
same,Median progression-free survival,[2]; [5],2.8 months
same,Median time to progression,[2]; [5],2.8 months
same,"Tumor response: Complete response, number of patients",[2]; responders (n = 21),2
same,"Tumor response: Complete response, share of group",[2]; responders (n = 21),9.5%
same,"Tumor response: Partial response, number of patients",[2]; responders (n = 21),9
same,"Tumor response: Partial response, share of group",[2]; responders (n = 21),42.9%
same,"Tumor response: Stable disease, number of patients",[2]; responders (n = 21),10
same,"Tumor response: Stable disease, share of group",[2]; responders (n = 21),47.6%
